Reference: US20210038559A1, “CANNABINOIDS AND DERIVATIVES FOR PROMOTING IMMUNOGENICITY OF TUMOR AND INFECTED CELLS” (priority 2018, published 2021)

Experiments:
[1] = tested on: MHC class I expression on COLO 205 cells; test: MHC class I expression on COLO 205 cells, 24 hours, flow cytometry (W6/32); details: for MFI: W6/32 staining; for increase in MHC class I expression: 24 hours, relative to non-treated cells
Experimental: FIG. 2A-2F. […] Cells were treated for 24 hours and cell surface MHC class I expression was measured by flow cytometry.
Cannabigerol was also tested for its capacity to induce MHC class I expression in a human colorectal carcinoma cell line, COLO 205. The cells were treated with either 25 μM or 50 μM cannabigerol for 24 hours. Fluorophor (Alexa Fluor 488)-conjugated W6/32 antibody (Thermo Fisher) was used in a flow cytometry assay to quantitate MHC class I expression. […] Cannabigerol is only one of many cannabinoid-like molecules with potential biopharmaceutical activity. […] COLO 205 cells were treated with up to 40 μM of the cannabinoids 1-5 presented in Tables 1 and 2 and evaluated for cell surface MHC class I expression as described above for cannabigerol.

A9 tumors = test: A9 tumor mouse model, intraperitoneal treatment; assay type: in vivo
From the text: FIG. 7A-7B. Number of live lymphocytes observed within the tumor of tumor bearing mice (n=8 for PBS negative control and Cannabigerol treatments, n=6 for TSA positive control). A9 tumors were present in mice for 7 days before intraperitoneal treatment, and mice were sacrificed 4-5 days after treatment. Cannabigerol upregulation of MHC-I expression attracts increased number of lymphocytes which can infiltrate the tumor.
To confirm the in vivo activity of cannabinoid compounds, a representative cannabinoid was tested in a representative animal model. A9 tumor cells were injected subcutaneously into mice at 8-10 weeks of age, and mice were treated 7 days later with either Cannabigerol, TSA, or Vehicle. 1×10^5 A9 cells were injected in a volume of 50 μL of PBS into the right flank of each mouse subcutaneously. Starting at day 7 after injection of the A9 tumor cells, intraperitoneal injections of Cannabigerol (Cayman Chemical Company) at 10 mg/kg, Trichostatin A (TSAX Sigma-Aldrich) at 0.5 mg/kg dissolved in 1% DMSO and PBS, or vehicle (0.2% DMSO, 5% Bovine Serum Albumin (BSA), in PBS) were administered daily to the animals. Cannabigerol was dissolved in 0.2% DMSO, 5% Bovine Serum Albumin, in PBS. Animals were weighed 3 times a week and during tumor measurements, and tumor measurements were begun upon appearance of the tumor, on […] of the trial. Tumor volume was determined using calipers to measure tumor dimensions. Mice were sacrificed at day 10, 11, and 12, as was dictated by subscribed humane endpoints, in which mice experienced tumor ulceration. Half of the tumors were removed from the mouse and immediately placed in digestion media (RPMI Medium 1640 (Gibco) with 10% FBS and Penicillin+Streptomycin (P+S), with the addition of 10% collagenase hyaluronidase, 15% DNAse I (Stemcell)). Tumors were chopped in 1 mL of digestion media and placed at a temperature of 35° C. for 30 minutes, before being passed through a 100 micron cell strainer (Falcon). […]

[2] = tested on: A9 cells, soluble mouse proteins; test: Cytokine secretion profile in Cannabigerol treated A9 cells (Proteome Profiler Mouse XL cytokine array); assay type: cell-based; details: 0.055 μM, 48 hours, versus DMSO
Experimental: FIG. 10A-10E show the cytokines and other markers that have increased or decreased expression after treatment with cannabinoids, as compared to interferon gamma. FIG. 10A) Inflammatory markers; FIG. 10B) Cell growth markers; FIG. 10C) Leukocyte migration markers; FIG. 10D) Cell growth and differentiation markers; FIG. 10E) summary of markers.
Cannabigerol and IFN gamma were dissolved in 1% Dimethyl Sulfoxide (DMSO) (Sigma) in media (1% DMSO). 1×10^6 A9 cells were plated onto a 6 well plate in two mL of DMEM media. Twenty-four hours after seeding, cells were cultured at the optimum concentrations of Cannabigerol 0.055 μM or 5.832×10^−6 nM IFN gamma or 1% DMSO vehicle for 48 hours. Relative expression levels of 111 soluble mouse proteins including cytokines, chemokines and growth factors were evaluated using the Proteome Profiler Mouse XL cytokine array kit (R&D System, ARY028) following the manufacturer's instructions. Spot densities on the array film were detected and quantified using Image J analysis software Image J protein analyzer add-on on a scanned version of the film. Quantification of the spot intensity in the arrays was conducted with background subtraction in ImageJ. To determine fold change, the treatment values of IFN gamma microarrays were divided by the DMSO negative control values of the concurring spots. A value of 1 was subtracted from the absolute value of this fold change, to correct the value of DMSO to “0”. Experiment was done in technical replicates.
There also was an increase in VEGFA. Additionally, there was downregulation of IL-10, and IL-11. There also was a decrease in the production of IGFBP1 and angiopoietin-1,

[3] = tested on: MHC class I expression, mouse Lewis lung carcinoma cell line A9; test: MHC class I expression in mouse A9 Lewis lung carcinoma cells, 24 hours, flow cytometry; assay type: cell-based; details: 21 μM, relative to the DMSO control
Experimental: FIG. 1A-1B. Cannabigerol stimulates MHC class I expression in the mouse A9 Lewis lung carcinoma (FIG. 1A) and the human COLO 205 colorectal carcinoma (FIG. 1B) cell lines. Cells were treated for 24 hours with 21.2 μM (A) or 25 and 50 μM (FIG. 1B) cannabigerol.
Cannabigerol, a representative cannabinoid, was tested for its ability to also stimulate MHC class I expression in mammalian cancer cell lines. The mouse Lewis lung carcinoma cell line, A9, was treated with 21 μM of cannabigerol for 24 hours prior to flow cytometric analysis of cell surface expression of MHC class I expression levels using the MHC class I antibody W6/32 (Thermo Fisher). Control conditions included the vehicle, dimethyl sulfoxide (DMSO, 1%) alone, and 100 ng/ml of trichostatin A (TSA), a histone deacetylase inhibitor and known inducer of MHC class I expression in mammalian cells. […] The positive control, TSA, stimulated expression by 2.4-fold.

[4] = 10 mg/kg intraperitoneal daily from day 7, versus Vehicle treated group

**Q.** Which MFI ([1]; COLO 205, 10 μM) does the source give for `CCCCCc1cc(O)c(C/C=C(\C)CCC=C(C)C)c(O)c1` [Example 1, 2-[(2E)-3,7-dimethyl-2,6-octadien-1-yl]-5-pentyl-1,3-benzenediol] here?
**A.** 125

**Q.** What about the MFI ([1]; COLO 205, 20 μM) of the same compound?
**A.** 130

**Q.** And the “increase in MHC class I expression” value ([1]; COLO 205, 25 μM)?
**A.** 25%

**Q.** And the MFI ([1]; COLO 205, 30 μM)?
**A.** 130

**Q.** And the MFI ([1]; COLO 205, 40 μM)?
**A.** 164

**Q.** What about the “increase in MHC class I expression” value ([1]; COLO 205, 50 μM) of the same compound?
**A.** 2 fold

**Q.** What about the Cell viability ([1]; COLO 205, all treatment conditions (25 μM or 50 μM, 24 hours)) of the same compound?
**A.** > 95%

**Q.** What about the fold induction at 10 µM ([1]; Homo sapiens, COLO 205) of the same compound?
**A.** 1.03

**Q.** What about the fold induction at 20 µM ([1]; Homo sapiens, COLO 205) of the same compound?
**A.** 1.07

**Q.** What about the fold induction at 30 µM ([1]; Homo sapiens, COLO 205) of the same compound?
**A.** 1.07

**Q.** What about the fold induction at 40 µM ([1]; Homo sapiens, COLO 205) of the same compound?
**A.** 1.36

**Q.** What about the “absolute numbers of lymphocytes in tumors” value (A9 tumors; 10 mg/kg intraperitoneal daily from day 7, relative to vehicle treated tumors) of the same compound?
**A.** Much higher

**Q.** And the Mouse weight (A9 tumors; [4])?
**A.** similar

**Q.** What about the tumor volume (A9 tumors; [4]) of the same compound?
**A.** similar

**Q.** And the FGF-21 expression [2]?
**A.** upregulated

**Q.** What about the IL-10 expression [2] of the same compound?
**A.** downregulation

**Q.** What about the IL-11 expression [2] of the same compound?
**A.** downregulation

**Q.** And the IL-13 expression [2]?
**A.** upregulated

**Q.** What about the VEGFA expression [2] of the same compound?
**A.** increase

**Q.** And the “production of IGFBP1” value [2]?
**A.** decrease

**Q.** And the “production of angiopoietin-1” value [2]?
**A.** decrease

**Q.** And the cell death [3]?
**A.** limited cell death

**Q.** And the “increase in MHC class I expression” value [3]?
**A.** 1.8 fold
